Assays:
Assay type in all cases: in vivo, SD/IGS rats
[1] = Test 3: percentage of compound (I) remaining unaltered in rat's digestive tract; settings: 1 mg/kg oral; for Remaining unaltered, cecum/large intestine (including the contents), relative to dose / Remaining unaltered, small intestine's contents, relative to dose / Remaining unaltered, small intestine, relative to dose / Remaining unaltered, total, relative to dose: average of 4 cases ± S.D.
Procedure: Test 3: Percentage of Compound (I) Remaining Unaltered in Rat's Digestive Tract
Seven-week old SD/IGS rats (CHARLES RIVER LABORATORIES JAPAN, INC.; male; fasted) were orally administered compound (I) (1 mg/kg) formulated with an aqueous solution of 0.5% CMC-Na (carboxymethylcellulose sodium salt). One, four and seven hours after the drug administration, the rats were euthanized under anesthetization with ether and their small intestine, cecum, and large intestine were removed. The contents of the small intestine were recovered by infusing the small intestine with 20 mL of physiological saline. After washing the tissue's surface with physiological saline, the tissues and the recovered contents were measured for their weight and homogenized under cooling with ice in the presence of added 4 volumes of purified water. The homogenate was deproteinated in the presence of an added acetonitrile/methanol solution containing an internal standard and, thereafter, the supernatant was analyzed by LC-MS/MS (Applied Biosystems: API3000). Drug-derived ions were detected by selected reaction monitoring based on electrospray ionization in a positive ion mode. From peak areas in the resulting extracted ion chromatogram, drug concentrations in the homogenate were calculated by the internal standard method.
The internal standard here used was compound 11 disclosed in WO2007/136116.

[2] = test system: rats with constipation induced by low-fiber diet; assay: Test 1: ameliorating effect on constipation models fed on low-fiber diet; settings: low-fiber diet constipation model rats, oral in 0.5% MC, dosed twice (0 and 8 h)
Procedure: Test 1: Ameliorating Effect on Constipation Models Fed on Low-Fiber Diet
SD/IGS rats (6-wk old; CHARLES RIVER LABORATORIES JAPAN, INC.) in groups, each consisting of two heads per cage, were fed on a diet with a decreased dietary fiber content of 5% for a week in order to induce constipation. The normal group was fed on a standard diet with 15% dietary fiber (MF diet; ORIENTAL YEAST CO., LTD.) On the day before the test, each rat was measured for body weight and thereafter transferred into an individual cage. Grouping was performed on the basis of the body weights measured on the day before the test. The experimental groups of rats with induced constipation were orally administered compound (I) in a volume of 5 mL/kg body weight as dissolved in 0.5% (w/v) methylcellulose (MC), whereas the control vehicle group was orally administered 0.5% MC only. […] Immediately after the first administration, a stool recovery tray was placed under each cage and starting 2 hours after the administration, stools were recovered every two hours until 24 hours after the administration; the appearance of the recovered stools was observed and their weight was measured. To determine their moisture content, the stools were measured for their wet weight, dried for at least 8 hours at 100° C., measured for dry weight, and its proportion (%) to the wet weight was calculated. […]

[3] = test system: rats with loperamide-induced constipation; assay: Test 2: ameliorating effect on loperamide-induced constipation; settings: loperamide (5 mg/kg p.o.) constipation model rats, oral in 0.5% MC
Procedure: Test 2: Ameriolating Effect on Loperamide-Induced Constipation
The effects on constipation as induced by loperamide which suppresses the propulsion of the digestive tract's contents and the secretion of intestinal juice were investigated.
SD/IGS rats (6-wk old; CHARLES RIVER LABORATORIES JAPAN, INC.) in groups, each consisting of one head per cage, were kept in a day-and-night reversal room for 11 days. The rats were fasted for about 16 hours and orally administered 0.5% MC suspended loperamide at a dose of 5 mg/5 mL/kg body weight to prepare constipation models. The normal group was orally administered on 0.5% MC only. […] Immediately after the administration of compound (I), 5 g of a standard diet (MF diet; ORIENTAL YEAST CO., LTD.) was applied and thereafter, a stool recovery tray was placed under each cage and starting 2 hours after the administration, stools were recovered every two hours until after 12 hours; the appearance of the recovered stools was observed and their weight was measured. To determine their moisture content, the stools were measured for their wet weight, dried for at least 8 hours at 100° C., measured for dry weight, and its proportion (%) to the wet weight was calculated. […]

dose remaining unaltered in the small intestine and its contents ([1]; 1 hour after drug administration): about 75%
Remaining unaltered, cecum/large intestine (including the contents), relative to dose ([1]; 1 hr after dosing): 0.2 ± 0.3 % of dose
Remaining unaltered, small intestine's contents, relative to dose ([1]; 1 hr after dosing): 70.3 ± 6.7 % of dose
Remaining unaltered, small intestine, relative to dose ([1]; 1 hr after dosing): 4.9 ± 0.6 % of dose
Remaining unaltered, total, relative to dose ([1]; 1 hr after dosing): 75.4 ± 6.3 % of dose
dose remaining unaltered in the small intestine and its contents ([1]; 4 hours after drug administration): about 75%
Remaining unaltered, cecum/large intestine (including the contents), relative to dose ([1]; 4 hr after dosing): 33.1 ± 44.5 % of dose
Remaining unaltered, small intestine's contents, relative to dose ([1]; 4 hr after dosing): 69.7 ± 44.9 % of dose
Remaining unaltered, small intestine, relative to dose ([1]; 4 hr after dosing): 6.4 ± 5.3 % of dose
Remaining unaltered, total, relative to dose ([1]; 4 hr after dosing): 109.2 ± 10.7 % of dose
Remaining unaltered, cecum/large intestine (including the contents), relative to dose ([1]; 7 hr after dosing): 84.2 ± 8.8 % of dose
Remaining unaltered, small intestine's contents, relative to dose ([1]; 7 hr after dosing): 1.6 ± 1.2 % of dose
Remaining unaltered, small intestine, relative to dose ([1]; 7 hr after dosing): 0.7 ± 0.3 % of dose
Remaining unaltered, total, relative to dose ([1]; 7 hr after dosing): 86.5 ± 9.2 % of dose
SMILES: COc1cc(C(C)C)c(Cc2ccc(/C=C/C(C)(C)C(=O)NC(C)(C)C(=O)NCCN(C)C)cc2)cc1[C@@H]1O[C@H](CO)[C@@H](O)[C@H](O)[C@H]1O [Compound (I), (1S)-1,5-anhydro-1-[5-(4-{(1E)-4-[(1-{[2-(dimethylamino)ethyl]amino}-2-methyl-1-oxopropan-2-yl)amino]-3,3-dimethyl-4-oxobut-1-en-1-yl}benzyl)-2-methoxy-4-(propan-2-yl)phenyl]-D-glucitol]
wet weight of stools ([2]; stools recovered until 24 hours (FIG. 1)): increased
moisture content of stools ([2]; stools recovered until 24 hours (FIG. 2)): increased
wet weight of stools ([3]; stools recovered until 12 hours (FIG. 3)): increased
moisture content of stools ([3]; stools recovered until 12 hours (FIG. 4)): increased

From patent publication US10022389B2, “Prophylactic or therapeutic drug for constipation” (TAISHO PHARMACEUTICAL CO., LTD., priority 2013, dated 2018)
